For experiment [1], the target named is 5-hydroxytryptamine receptor 2A (Rattus norvegicus, UniProt P14842). Nature of the experiment: Inhibition of 0.4 nM [3H]ketanserin binding to Serotonin 5-HT2A receptor from rat brain cortex.
In experiment [2] the target is T1, 5-hydroxytryptamine receptor 1A (Rattus norvegicus, UniProt P19327).
T1 sequence (P19327 whole entry): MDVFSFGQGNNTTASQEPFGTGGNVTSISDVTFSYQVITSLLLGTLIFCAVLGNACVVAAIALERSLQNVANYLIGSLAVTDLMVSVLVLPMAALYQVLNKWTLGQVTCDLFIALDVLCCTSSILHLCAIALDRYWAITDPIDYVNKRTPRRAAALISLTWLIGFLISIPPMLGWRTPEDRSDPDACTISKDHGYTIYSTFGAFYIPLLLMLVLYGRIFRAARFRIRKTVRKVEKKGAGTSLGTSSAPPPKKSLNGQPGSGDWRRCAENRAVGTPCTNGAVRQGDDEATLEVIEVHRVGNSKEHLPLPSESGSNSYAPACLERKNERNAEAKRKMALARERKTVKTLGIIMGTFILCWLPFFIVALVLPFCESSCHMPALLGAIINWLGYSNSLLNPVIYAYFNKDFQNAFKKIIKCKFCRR
The experiment in a line: Inhibition of [3H]8-OH-DPAT binding to Serotonin 5-HT1A receptor from rat brain cortex.

For experiment [3], the target named is T2, 5-hydroxytryptamine receptor 2C (Rattus norvegicus, UniProt P08909).
T2 sequence (P08909 whole entry): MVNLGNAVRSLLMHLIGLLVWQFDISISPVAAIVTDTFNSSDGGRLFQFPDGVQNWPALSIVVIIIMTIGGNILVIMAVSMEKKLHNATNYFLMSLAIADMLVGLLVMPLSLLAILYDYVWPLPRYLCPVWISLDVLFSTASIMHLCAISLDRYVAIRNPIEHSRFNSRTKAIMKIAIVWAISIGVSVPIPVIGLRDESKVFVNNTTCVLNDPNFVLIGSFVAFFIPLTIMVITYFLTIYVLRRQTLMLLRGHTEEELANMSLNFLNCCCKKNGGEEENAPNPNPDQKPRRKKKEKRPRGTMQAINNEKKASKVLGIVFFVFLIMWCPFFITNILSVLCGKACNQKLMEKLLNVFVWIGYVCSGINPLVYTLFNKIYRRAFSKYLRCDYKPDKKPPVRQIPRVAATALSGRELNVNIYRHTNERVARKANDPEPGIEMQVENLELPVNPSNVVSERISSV
The experiment in a line: Inhibition of 1 nM [3H]mesulergine binding to Serotonin 5-HT2C receptor from rat brain cortex.

The source of these data is ChEMBL document CHEMBL1141158, “New 5-hydroxytryptamine(1A) receptor ligands containing a norbornene nucleus: synthesis and in vitro pharmacological evaluation” (J Med Chem, 2005).

Each structure is given as a SMILES string.

5-hydroxytryptamine receptor 2A, sequence (P14842 whole entry): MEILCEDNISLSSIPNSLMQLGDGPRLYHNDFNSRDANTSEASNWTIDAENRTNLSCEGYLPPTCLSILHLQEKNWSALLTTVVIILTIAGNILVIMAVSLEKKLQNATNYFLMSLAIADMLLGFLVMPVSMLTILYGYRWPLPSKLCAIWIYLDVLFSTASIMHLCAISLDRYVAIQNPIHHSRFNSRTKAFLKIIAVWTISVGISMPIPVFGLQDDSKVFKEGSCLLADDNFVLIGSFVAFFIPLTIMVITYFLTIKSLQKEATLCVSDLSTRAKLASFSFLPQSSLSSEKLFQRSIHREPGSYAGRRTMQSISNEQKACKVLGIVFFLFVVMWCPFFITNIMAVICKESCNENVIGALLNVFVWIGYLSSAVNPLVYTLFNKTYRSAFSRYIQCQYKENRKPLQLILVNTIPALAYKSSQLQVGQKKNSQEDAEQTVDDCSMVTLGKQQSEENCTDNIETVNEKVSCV

One may read the Ki as the equilibrium dissociation constant of an inhibitor or competing ligand from its target. Higher therefore signals weaker binding. For `O=C1C2C3C=CC(C3)C2C(=O)N1OCCN1CCN(c2ncccn2)CC1` (configuration not stated), the results for the Ki in experiment [1] and in experiment [2] were > 10000 nM and 384 nM, respectively.
As for `O=C1C2C3C=CC(C3)C2C(=O)N1OCCCN1CCN(c2ccccn2)CC1` (configuration not stated), the Ki was > 10000 nM in experiment [3], > 10000 nM in experiment [1] and 30.3 nM in experiment [2].
As to `COc1ccccc1N1CCN(CCON2C(=O)C3C4C=CC(C4)C3C2=O)CC1` (configuration not stated), the values for the Ki in experiment [3], in experiment [1] and in experiment [2] were > 10000 nM, > 10000 nM and 45 nM, respectively.
Regarding `O=C1C2C3C=CC(C3)C2C(=O)N1OCCCN1CCN(c2ncccn2)CC1` (configuration not stated), the Ki in experiment [3] is > 10000 nM; in experiment [1], 118 nM; in experiment [2], 49.5 nM.
On to `O=C1C2C3C=CC(C3)C2C(=O)N1OCCN1CCN(c2cccc(Cl)c2)CC1` (configuration not stated), for which the Ki in experiment [3] is > 10000 nM; in experiment [1], 2700 nM; in experiment [2], 27.1 nM.
Taken in the same sequence, the figures for `O=C1C2C3C=CC(C3)C2C(=O)N1OCCN1CCN(c2ccccn2)CC1` (configuration not stated) were > 10000 nM, 3510 nM and 382 nM.
